Assays:
Assay type in all cases: in vivo
Plasmopara viticola = assay: Test B: grape downy mildew, spray 24 h after inoculation (disease rating, 100 = 100% disease control); settings: spray 24 h after inoculation, compounds without asterisk (not 40 or 10 ppm)
Excerpt: (§1) The test compounds were first dissolved in acetone in an amount equal to 3% of the final volume and then suspended at the desired concentration (in ppm) in acetone and purified water (50/50 mix by volume) containing 250 ppm of the surfactant Trem® 014 (polyhydric alcohol esters). The resulting test suspensions were then used in tests A-E. Spraying a 200 ppm test suspension to the point of run-off on the test plants was the equivalent of a rate of 500 g/ha.
Grape seedlings were inoculated with a spore suspension of Plasmopara viticola (the causal agent of grape downy mildew) and incubated in a saturated atmosphere at 20° C. for 24 h. After a short drying period, the test suspension was sprayed to the point of run-off on the grape seedlings and then moved to a growth chamber at 20° C. for 5 days, after which the test units were placed back into a saturated atmosphere at 20° C. for 24 h. Upon removal, disease ratings were made.
(§2) Results for Tests A-F are given in Table A. In the table, a rating of 100 indicates 100% disease control and a rating of 0 indicates no disease control (relative to the controls). A dash (-) indicates no test results.

Phytophthora infestans [1] = assay: whole plant or invertebrate; settings: tomato late blight; spray the day before inoculation; compounds without asterisk (not 40 or 10 ppm)
Phytophthora infestans [2] = assay: whole plant or invertebrate; settings: tomato late blight; spray 17 h after inoculation; compounds without asterisk (not 40 or 10 ppm)
[3] = tested on: Erysiphe graminis f. sp. tritici; assay: Test E: wheat powdery mildew, spray the day before inoculation (disease rating, 100 = 100% disease control); settings: spray the day before inoculation, compounds without asterisk (not 40 or 10 ppm)
Excerpt: as §1
The test suspension was sprayed to the point of run-off on wheat seedlings. The following day the seedlings were inoculated with a spore dust of Erysiphe graminis f. sp. tritici, (the causal agent of wheat powdery mildew) and incubated in a growth chamber at 20° C. for 7 days, after which disease ratings were made.
as §2

Which results are given for CC(c1cccnc1)N(C)C(=O)c1csc(C2CCN(C(=O)Cc3cccc(C(F)(F)F)c3)CC2)n1 (stereo not shown) [compound 66]?
Test B disease rating (100 = 100% disease control, 0 = no disease control) (Plasmopara viticola): 2%; Test C disease rating (100 = 100% disease control, 0 = no disease control) (Phytophthora infestans [1]): 54%; Test D disease rating (100 = 100% disease control, 0 = no disease control) (Phytophthora infestans [2]): 42%; Test E disease rating (100 = 100% disease control, 0 = no disease control) [3]: 0%

C[C@H](c1ccccc1)N(C)C(=O)c1csc(C2CCN(C(=O)Cn3cc(Br)cn3)CC2)n1 [compound 71] was tested. Which “Test B disease rating (100 = 100% disease control, 0 = no disease control)” value (Plasmopara viticola) did it give?
Its value is 34%.

What about the “Test C disease rating (100 = 100% disease control, 0 = no disease control)” value (Phytophthora infestans [1]) of the same compound?
Its value is 74%.

And the “Test D disease rating (100 = 100% disease control, 0 = no disease control)” value (Phytophthora infestans [2])?
Its value is 0%.

What about the “Test E disease rating (100 = 100% disease control, 0 = no disease control)” value [3] of the same compound?
Its value is 0%.

With Cc1ccn(CC(=O)N2CCC(c3nc(C(=O)N(C)[C@H](C)c4ccccc4)cs3)CC2)n1 [compound 72] as the compound, how does the “Test B disease rating (100 = 100% disease control, 0 = no disease control)” value (Plasmopara viticola) read?
The value was 1%.

What about the “Test C disease rating (100 = 100% disease control, 0 = no disease control)” value (Phytophthora infestans [1]) of the same compound?
The value was 91%.

What about the “Test D disease rating (100 = 100% disease control, 0 = no disease control)” value (Phytophthora infestans [2]) of the same compound?
The value was 66%.

What about the “Test E disease rating (100 = 100% disease control, 0 = no disease control)” value [3] of the same compound?
The value was 0%.

How did the “Test B disease rating (100 = 100% disease control, 0 = no disease control)” value (Plasmopara viticola) turn out when Cc1cnn(CC(=O)N2CCC(c3nc(C(=O)N(C)[C@H](C)c4ccccc4)cs3)CC2)c1 [compound 73] was run?
The value was 2%.

And the “Test C disease rating (100 = 100% disease control, 0 = no disease control)” value (Phytophthora infestans [1])?
Its value is 75%.

And the “Test D disease rating (100 = 100% disease control, 0 = no disease control)” value (Phytophthora infestans [2])?
Its value is 9%.

What about the “Test E disease rating (100 = 100% disease control, 0 = no disease control)” value [3] of the same compound?
Its value is 0%.

Which “Test B disease rating (100 = 100% disease control, 0 = no disease control)” value (Plasmopara viticola) does the source give for CC(c1ccncc1)N(C)C(=O)c1csc(C2CCN(C(=O)Cc3cccc(C(F)(F)F)c3)CC2)n1 (stereo not shown) [compound 76] here?
The value was 0%.

And the “Test C disease rating (100 = 100% disease control, 0 = no disease control)” value (Phytophthora infestans [1])?
Its value is 79%.

What about the “Test D disease rating (100 = 100% disease control, 0 = no disease control)” value (Phytophthora infestans [2]) of the same compound?
Its value is 0%.

What about the “Test E disease rating (100 = 100% disease control, 0 = no disease control)” value [3] of the same compound?
The value was 0%.

For CCOc1ccccc1CC(=O)N1CCC(c2nc(C(=O)N(C)[C@H](C)c3ccccc3)cs2)CC1 [compound 78], which “Test B disease rating (100 = 100% disease control, 0 = no disease control)” value (Plasmopara viticola) is on record?
The value was 100%.

What about the “Test C disease rating (100 = 100% disease control, 0 = no disease control)” value (Phytophthora infestans [1]) of the same compound?
The value was 78%.

What about the “Test D disease rating (100 = 100% disease control, 0 = no disease control)” value (Phytophthora infestans [2]) of the same compound?
The value was 46%.

And the “Test E disease rating (100 = 100% disease control, 0 = no disease control)” value [3]?
Its value is 0%.

With CCOc1cccc(CC(=O)N2CCC(c3nc(C(=O)N(C)[C@H](C)c4ccccc4)cs3)CC2)c1 [compound 79] as the compound, how does the “Test B disease rating (100 = 100% disease control, 0 = no disease control)” value (Plasmopara viticola) read?
Its value is 82%.

What about the “Test C disease rating (100 = 100% disease control, 0 = no disease control)” value (Phytophthora infestans [1]) of the same compound?
The value was 77%.

And the “Test D disease rating (100 = 100% disease control, 0 = no disease control)” value (Phytophthora infestans [2])?
Its value is 0%.

What about the “Test E disease rating (100 = 100% disease control, 0 = no disease control)” value [3] of the same compound?
The value was 0%.

Which results are given for C[C@H](c1ccccc1)N(C)C(=O)c1csc(C2CCN(C(=O)Cc3cccnc3)CC2)n1 [compound 83]?
Test B disease rating (100 = 100% disease control, 0 = no disease control) (Plasmopara viticola): 14%; Test C disease rating (100 = 100% disease control, 0 = no disease control) (Phytophthora infestans [1]): 31%; Test D disease rating (100 = 100% disease control, 0 = no disease control) (Phytophthora infestans [2]): 0%; Test E disease rating (100 = 100% disease control, 0 = no disease control) [3]: 0%

What does the source list for C[C@H](c1ccccc1)N(C)C(=O)c1csc(C2CCN(C(=O)Cc3ccncc3)CC2)n1 [compound 84]?
Test B disease rating (100 = 100% disease control, 0 = no disease control) (Plasmopara viticola): 41%; Test C disease rating (100 = 100% disease control, 0 = no disease control) (Phytophthora infestans [1]): 44%; Test D disease rating (100 = 100% disease control, 0 = no disease control) (Phytophthora infestans [2]): 0%; Test E disease rating (100 = 100% disease control, 0 = no disease control) [3]: 0%

CCCCC(c1ccccc1)N(C)C(=O)c1csc(C2CCN(C(=O)Cc3cc(C)ccc3C)CC2)n1 (stereo not shown) [compound 85] was tested. Which “Test B disease rating (100 = 100% disease control, 0 = no disease control)” value (Plasmopara viticola) did it give?
The value was 99%.

What about the “Test C disease rating (100 = 100% disease control, 0 = no disease control)” value (Phytophthora infestans [1]) of the same compound?
The value was 99%.

And the “Test D disease rating (100 = 100% disease control, 0 = no disease control)” value (Phytophthora infestans [2])?
Its value is 9%.

And the “Test E disease rating (100 = 100% disease control, 0 = no disease control)” value [3]?
The value was 32%.
